Measured values reported in PubChem BioAssay AID434987 (Southern Research Specialized Biocontainment Screening …, 2010).
Active and inactive are the calls of the source. The rule behind the calls is not given here.

Test system: M. tuberculosis H37Rv growth inhibition with meropenem
Assay: dose response, H37Rv, with and without meropenem (AID 434987);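 note: growth over 7 days at 37 °C before Alamar Blue read on day 9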
[1] = M. tuberculosis H37Rv growth inhibition, measured here: IC50 without meropenem
[2] = M. tuberculosis H37Rv growth inhibition, measured here: IC90 without meropenem
[3] = measured here: IC90 with meropenem

| SMILES | IC50 | IC50 [1] | IC90 [2] | IC90 [3] |
| --- | --- | --- | --- | --- |
| CN=C(Nc1cc(Cl)ccc1Cl)SC1CC(=O)N(c2ccc(C(=O)OC)cc2)C1=O (configuration not stated) | > 100 µM (inactive) | > 100 µM | > 100 µM | > 100 µM |
| Cc1ccc(SCCNC(=O)c2ccc(C)c([N+](=O)[O-])c2)cc1 | 49.6 µM (inactive) | > 100 µM | > 100 µM | 54 µM |
| COc1cccc(C(=O)C2CCCN(Cc3ccccn3)C2)c1 (configuration not stated) | 1.46 µM | 16.2 µM | > 100 µM | 97.5 µM |
| COc1cc(/C=C/C(=O)OCC(=O)Nc2cc(C)c(C)cc2[N+](=O)[O-])ccc1O | 43 µM (inactive) | 92.8 µM | > 100 µM | > 100 µM |
| CCN(CC)C(=O)CSc1nnc2nnc3cc(OC)ccc3n12 | 12 µM (inactive) | 27.7 µM | 51.7 µM | 13.4 µM |
| COc1nc(Nc2nc3ccccc3c(=O)[nH]2)nc2ccc(C)cc12 | > 100 µM (inactive) | > 100 µM | > 100 µM | > 100 µM |
| Cc1ccc(CNC(=O)c2ccccc2NC(=O)CSc2nnnn2C)cc1 | 36.6 µM (inactive) | 81.1 µM | > 100 µM | > 100 µM |
| COc1cc2c(=O)n(Cc3ccco3)c(=O)n(CC(=O)c3cccc(Br)c3)c2cc1OC | > 100 µM (inactive) | > 100 µM | > 100 µM | > 100 µM |
| CCCc1cc(C(=O)OCC(=O)N2CCN(c3ccc(OC)cc3)CC2)sc1C | > 100 µM (inactive) | > 100 µM | > 100 µM | > 100 µM |
| COc1ccc(NC(=O)CN2CCN(C3c4ccccc4-c4ccccc43)CC2)c(OC)c1 | > 100 µM (inactive) | > 100 µM | > 100 µM | > 100 µM |
| Cc1ccc(C)c(NC(=O)COC(=O)c2ccc(S(=O)(=O)N3CCCCC3)cc2)c1 | > 100 µM (inactive) | > 100 µM | > 100 µM | > 100 µM |
| Cn1ccnc1C(=O)Cc1ccc([N+](=O)[O-])cc1 | 7.78 µM | 44.1 µM | 48.9 µM | 22.6 µM |
| O=C(NCc1cccs1)c1cc(-c2ccccc2)nc2ccccc12 | > 100 µM (inactive) | > 100 µM | > 100 µM | > 100 µM |
| Cc1cc(=O)[nH]c(N/N=C/c2c(O)n(-c3ccccc3)c(=O)c3ccccc23)n1 | 1.87 µM | 7.61 µM | > 100 µM | 13.6 µM |
| Cc1cccc(-n2nc([N+](=O)[O-])c(=NC3CCN(Cc4ccccc4)CC3)n2O)c1 | 25.9 µM (inactive) | 45.8 µM | 49 µM | 30.5 µM |
| Cc1onc(-c2ccccc2Cl)c1C(=O)NCc1ccc2c(c1)cc(C)n2C | 16.6 µM (inactive) | 39 µM | 58.5 µM | 29.4 µM |
| COc1ccccc1-c1cc(C(=O)Nc2c(C)n(C)n(-c3ccccc3)c2=O)no1 | 6.68 µM | 39.2 µM | 88.1 µM | 19.5 µM |
| C=CCN(C(=O)CN1CCOCC1)c1nc(C)c(-c2ccccc2)s1 | > 100 µM (inactive) | > 100 µM | > 100 µM | > 100 µM |
| Cc1onc(NC(=O)c2ccc([N+](=O)[O-])o2)c1Br | 6.54 µM | 26.2 µM | 36 µM | 16.4 µM |
| Cc1ccccc1C(=O)Oc1ccccc1N1C(=O)C2CC=CCC2C1=O (configuration not stated) | > 100 µM (inactive) | > 100 µM | > 100 µM | > 100 µM |

| SMILES | IC50 | IC50 [1] | IC90 [2] | IC90 [3] |
| --- | --- | --- | --- | --- |
| CN(C)S(=O)(=O)c1ccc(NC(=O)c2cc3ccccc3o2)cc1 | > 100 µM (inactive) | > 100 µM | > 100 µM | > 100 µM |
| CCC(C(=O)Nc1ccccc1N1CCCC1)c1ccccc1 (configuration not stated) | 48.8 µM (inactive) | > 100 µM | > 100 µM | > 100 µM |
| O=C(CCl)N(c1ccccc1)C1CCS(=O)(=O)C1 (configuration not stated) | 5.77 µM | 18.2 µM | 55.6 µM | 13.9 µM |
| CC(C)(C)C1CCC(OCC(O)CN2CCN(c3ccccn3)CC2)CC1 (configuration not stated) | 100 µM (inactive) | > 100 µM | > 100 µM | > 100 µM |
| CCN=c1scc(-c2ccccc2)n1/N=C/c1ccccn1 | 93.2 µM (inactive) | > 100 µM | > 100 µM | > 100 µM |
| Cc1cc(NC(=O)/C=C/c2ccccc2Cl)n(-c2nc3ccccc3[nH]2)n1 | 1.94 µM | > 100 µM | > 100 µM | > 100 µM |
| O=C(NN=C(Cc1ccccc1)Cc1ccccc1)c1ccccc1F | 1.64 µM | > 100 µM | > 100 µM | > 50 µM |
| Brc1ccc(CNc2ccc3ncccc3c2)cc1 | > 100 µM (inactive) | > 100 µM | > 100 µM | > 100 µM |
| CCOc1ccc2nc(NC(=O)c3cnccn3)sc2c1 | 4.07 µM | > 100 µM | > 100 µM | > 100 µM |
| CCOC(=O)N1CCN(CC(=O)Nc2nnc(C(F)(F)F)s2)CC1 | 27.8 µM | > 100 µM | > 100 µM | 50.1 µM |
| O=C(CSc1nnc(COc2ccccc2)o1)N1CCN(c2ccccc2)CC1 | > 100 µM (inactive) | > 100 µM | > 100 µM | > 100 µM |
| C=CCSc1nc2c(c(-c3ccsc3)c1C#N)CN(C)CC2 | 50.6 µM (inactive) | 65.7 µM | > 100 µM | 55.1 µM |
| COc1cc(C(F)(F)F)nc2ccc(C#CCOC(=O)Nc3ccccc3)cc12 | > 100 µM (inactive) | > 100 µM | > 100 µM | > 100 µM |
| COc1ccc2cc(C3=CCCCC3)ncc2c1 | 74.8 µM (inactive) | > 100 µM | > 100 µM | > 100 µM |
| CN(C)CC(=O)Nc1nc(-c2ccccc2)cs1 | 10.5 µM | 83 µM | > 100 µM | > 100 µM |
| Cc1ccc(C)c(N2CCN(CC3CCCCC3)CC2)c1 | 37.9 µM | 95.9 µM | > 100 µM | 52.4 µM |
| N#C/C(C(=O)NCc1ccco1)=C1/SC=C(c2ccccc2)N1c1ccccc1 | > 100 µM (inactive) | > 100 µM | > 100 µM | > 100 µM |
| COc1cc(OC)cc(-c2nnc(NC(=O)CCS(=O)(=O)c3ccc(C)cc3)o2)c1 | 32.2 µM | > 100 µM | > 100 µM | > 100 µM |
| Cc1c(C(=O)NCCC2=CCCCC2)sc2ncnc(N3CCCCC3C)c12 (configuration not stated) | 47.5 µM (inactive) | 65.7 µM | > 100 µM | 52 µM |
| C=CCNC1=C(Cl)C(=O)N(c2cccc(Cl)c2Cl)C1=O | 13.9 µM | 46.5 µM | > 100 µM | 30.2 µM |

| SMILES | IC50 | IC50 [1] | IC90 [2] | IC90 [3] |
| --- | --- | --- | --- | --- |
| CC(/C=C(\NC(=O)c1ccccc1)C(=O)N=Nc1c(O)[nH]c2ccc(C)cc12)=C\c1ccccc1 | > 100 µM (inactive) | > 100 µM | > 100 µM | > 100 µM |
| O=C1N/C(=C\c2ccc(O)cc2)C(=O)c2ccccc21 | 21.9 µM | 59.6 µM | > 100 µM | > 100 µM |
| O=c1c(N=Nc2ccc(O)cc2)c(-c2ccccc2)[nH]n1-c1ccc([N+](=O)[O-])cc1 | > 100 µM (inactive) | > 100 µM | > 100 µM | > 100 µM |
| COc1cccc(/C=N/Nc2nc(N3CCCC3)nc(N3CCCC3)n2)c1O | 8.14 µM | 25.1 µM | 63.7 µM | 36.1 µM |
| O=C(Nc1ccc(Cl)cc1)C1CC2CCCC(C1)C2=O (configuration not stated) | > 100 µM (inactive) | > 100 µM | > 100 µM | > 100 µM |
| COc1ccc(Cl)cc1NC(=O)C/C(C)=N/NC(=O)CC#N | 7.99 µM | > 100 µM | > 100 µM | > 100 µM |
| COc1ccc(/C=N\NC(=O)c2sc(N)nc2C)cc1OC | > 100 µM (inactive) | > 100 µM | > 100 µM | > 100 µM |
| CCc1ccccc1NC(=O)CNC(=O)c1cc(C2CC2)nn1-c1ccccc1 | > 100 µM (inactive) | > 100 µM | > 100 µM | > 100 µM |
| Cc1sc2nc(C(C)Nc3ccccc3N3CCOCC3)[nH]c(=O)c2c1C (configuration not stated) | > 100 µM (inactive) | > 100 µM | > 100 µM | > 100 µM |
| CCOC(=O)c1sc(NC(=O)Nc2ccc(Cl)cc2)cc1C | > 100 µM (inactive) | > 100 µM | > 100 µM | > 100 µM |
| CSc1ccccc1C(=O)Nc1ccc2c(c1)OCCO2 | 35.4 µM (inactive) | 80.5 µM | > 100 µM | > 100 µM |
| CCOc1ccc(/C=N/NC(=O)c2ccccc2O)cc1CN1CC2CC(C1)c1cccc(=O)n1C2 (configuration not stated) | 79.8 µM (inactive) | 94.9 µM | > 100 µM | > 100 µM |
| O=c1c2cc(Cl)ccc2[nH]c(=S)n1Cc1cccs1 | 5.72 µM | 20.4 µM | > 50 µM | 13.2 µM |
| O=C(COc1ccccc1[N+](=O)[O-])N(Cc1cccc(Br)c1)C1CCS(=O)(=O)C1 (configuration not stated) | > 100 µM (inactive) | > 100 µM | > 100 µM | > 100 µM |
| CC/C(=N\NC(=O)c1ccc(N(C)C)cc1)c1ccccc1 | > 100 µM (inactive) | > 100 µM | > 100 µM | > 100 µM |
| C/C(=N\NC(=O)c1cc2c(s1)CCC(C)C2)c1ccc[nH]1 (configuration not stated) | 6.51 µM | > 100 µM | > 100 µM | > 100 µM |
| O=C(CSc1n[nH]c(=O)n1C1CC1)c1ccc2c(c1)OCCO2 | 4.9 µM | 46.3 µM | > 100 µM | > 100 µM |
| COc1ccc2oc(=N)c(C(=O)Nc3ccccc3)cc2c1 | > 100 µM (inactive) | > 100 µM | > 100 µM | > 100 µM |
